Where two headings read alike, the source gives them in different places.
Columns and labels:
Format in all cases: biochemical, Zea mays
[1] = molecular target: ALS enzyme extracted from Mutant 9 (heterozygous); assay: ALS enzyme assay, heterozygous Mutant 9; conditions: for IC50: ALS of heterozygous Mutant 9, read-out: ID50% (the source's name); for resistance group, Enzyme Assay: Mutant 9, groups Strong, Intermediate, Weak, Zero; for Fold Increase: fold increase in resistance vs wild type, heterozygous Mutant 9, 30 min
Protocol: (§1) Seeds of generation M₁BC₁ M₁BC₂ of the nine mutants were sprayed pre-emergence with the herbicide imazethapyr (PURSUIT) (Trade Mark) at a rate of 250 g/ha and grown in a growth chamber (16 hour day, 27°C; 8 hour night, 17°C). Plants were harvested after 11 days.
(§2) Four grams of leaf material were harvested from just above the first leaf axis and ground in a mortar and pestle in 20ml of a solution containing 40mM Tricine (Trade Mark), 10mM EDTA, 5mM pyruvate, 80 »M flavin adenine dinucleotide (FAD), 1mM dithiothreitol (DTT), pH 8, plus 0.8g Polyclar AT. The homogenate was pressed through four layers of muslin and centrifuged at 30,000g for 20 minutes.
(§3) The supernatant was brought to 65% saturation with ammonium sulphate, left to precipitate for 30 minutes and then centrifuged at 30.000g for 20 minutes. The pellet was resuspended in 2.5ml of 40mM Tricine, 10mM EDTA, 5mM pyruvate, 80»M FAD, 25% (v/v) glycerol, 1mM DTT, pH 8, and desalted into 3.5ml of 40mM Tricine, 10mM EDTA, 25% (v/v) glycerol, 1mM DTT, pH 8.
(§4) One hundred microlitres of the enzyme extract was used for each assay. Final reagent concentrations were: 120mM Tricine, 50mM pyruvate, 10mM MgCl₂, […], 93»M thiamine pyrophosphate (TPP), pH 8, in the presence or absence of a herbicide of interest, in a volume of 750 »l. Incubations were carried out at 37°C for 30 minutes. Reactions were stopped with 250»l of 1.84M sulphuric acid, and decarboxylation of the acetolactate carried out at 37°C for 75 minutes, or at 60°C for 30 minutes. Assay blanks had sulphuric acid added prior to the enzyme extract. To the samples and blanks 650»l of α-naphthol in 2.73M NaOH/0.16%(w/v) creatine were added followed by incubation at 37°C for 30 minutes. After centrifugation at 30,000g the optical density of the supernatant was read at 540nm.
(§5) The assay procedure described was carried out on ALS enzyme extracted from each of the nine mutants for the following herbicides: imazethapyr (PURSUIT) imazapyr (ARSENAL) imazaquin (SCEPTER) chlorsulfuron (GLEAN) chlorimuron (CLASSIC) […] (HARMONY) The enzyme activity graphs are given as Figures 3 to 8. In addition, homozygous lines of mutants 1 and 2 which were selected from generation M₁BC₁S₂, were also tested against the same group of herbicides and against representatives of the triazolopyrimidines and phenoxypyrimidines. The chemical structures of these herbicides are shown in Figure 2 of the accompanying drawings.
(§6) From the enzyme assay data it is possible to derive, as a measure of the degree of inhibition the factor ID50% for each mutant and for each herbicide. This factor is indicative of the herbicide concentration which gives 50% inhibition of the ALS activity in comparison with the wild-type control. It is also possible to derive the fold increase in resistance.

[2] = molecular target: ALS enzyme extracted from Mutant 1 (heterozygous); assay: ALS enzyme assay, heterozygous Mutant 1; conditions: for IC50: ALS of heterozygous Mutant 1, read-out: ID50% (the source's name); for resistance group, Enzyme Assay: Mutant 1, groups Strong, Intermediate, Weak, Zero; for Fold Increase: fold increase in resistance vs wild type, heterozygous Mutant 1, 30 min
Protocol: as §1, §2, §3, §4, §5, §6

[3] = molecular target: ALS enzyme extracted from Mutant 10 (heterozygous); assay: ALS enzyme assay, heterozygous Mutant 10; conditions: for IC50: ALS of heterozygous Mutant 10, read-out: ID50% (the source's name); for resistance group, Enzyme Assay: Mutant 10, groups Strong, Intermediate, Weak, Zero; for Fold Increase: fold increase in resistance vs wild type, heterozygous Mutant 10, 30 min
Protocol: as §1, §2, §3, §4, §5, §6

[4] = molecular target: ALS (acetolactate synthase), Wild type; assay: ALS enzyme assay, wild-type control; conditions: read-out: ID50% (the source's name)
Protocol: as §1, §2, §3, §4, §5, §6

[5] = molecular target: ALS enzyme extracted from Mutant 6 (heterozygous); assay: ALS enzyme assay, heterozygous Mutant 6; conditions: for IC50: ALS of heterozygous Mutant 6, read-out: ID50% (the source's name); for resistance group, Enzyme Assay: Mutant 6, groups Strong, Intermediate, Weak, Zero; for Fold Increase: fold increase in resistance vs wild type, heterozygous Mutant 6, 30 min
Protocol: as §1, §2, §3, §4, §5, §6

[6] = molecular target: ALS enzyme extracted from Mutant 8 (heterozygous); assay: ALS enzyme assay, heterozygous Mutant 8; conditions: for IC50: ALS of heterozygous Mutant 8, read-out: ID50% (the source's name); for resistance group, Enzyme Assay: Mutant 8, groups Strong, Intermediate, Weak, Zero; for Fold Increase: fold increase in resistance vs wild type, heterozygous Mutant 8, 30 min
Protocol: as §1, §2, §3, §4, §5, §6

[7] = molecular target: ALS extracted from leaves of MUTANT 1 (homozygous); assay: ALS enzyme assay, homozygous Mutant 1; conditions: for IC50: ALS of homozygous Mutant 1, read-out: ID50% Mutant; for Fold Increase: fold increase in resistance vs wild type, homozygous Mutant 1, 30 min
Protocol: as §2, §3, §4, §5, §6

[8] = herbicide concentration giving 50% inhibition of ALS activity

SMILES | IC50 [1] [µM] | resistance group, Enzyme Assay [1] | Fold Increase [1] | IC50 [2] [µM] | resistance group, Enzyme Assay [2] | Fold Increase [2] | IC50 [3] [µM] | resistance group, Enzyme Assay [3] | Fold Increase [3] | IC50 [4, 8] [µM] | IC50 [5] [µM] | resistance group, Enzyme Assay [5] | Fold Increase [5] | IC50 [6] [µM] | resistance group, Enzyme Assay [6] | Fold Increase [6] | IC50 [7] [µM] | Fold Increase [7] | IC50 [4] [µM]
CC(C)C1(C)N=C(c2nc3ccccc3cc2C(=O)O)NC1=O (centres unmarked) [Imazaquin, imazaquin] | 50 | Strong | 83 | 150 | Strong | 250 | 7 | Weak | 12 | 0.6 | 1.5 | Weak | 2 | 150 | Strong | 250 | 175 | 292 | –
COc1cc(Cl)nc(NC(=O)NS(=O)(=O)c2ccccc2C(=O)O)n1 [Chlorimuron, chlorimuron] | – | Weak | 3 | 0.005 | Weak | 1 | 0.017 | Intermediate | 5 | – | 0.015 | Weak | 4 | 0.01 | Zero | 3 | 0.01 | 2.7 | 0.0037
CCc1cnc(C2=NC(=O)C(C)(C(C)C)N2)c(C(=O)O)c1 (centres unmarked) [Imazethapyr, 5-ethyl-2-(5-iso-propyl-5-methyl-4-oxo-2-imidazolin-2-yl) nicotinic acid] | 425 | Strong | 283 | > 1000 | Strong | >660 | 15 | Intermediate | 10 | 1.5 | 60 | Weak | 40 | > 1000 | Strong | >660 | 750 | 500 | –
COc1nc(C)nc(NC(=O)NS(=O)(=O)c2ccccc2Cl)n1 [Chlorsulfuron, chlorsulfuron] | 0.05 | Weak | 3 | 0.065 | Weak | 4 | 0.035 | Weak | 2 | – | 0.065 | Weak | 4 | 0.075 | Weak | 4 | 0.06 | 3.2 | 0.0185
